Each structure is given as a SMILES string.

Holding throughout (assay type): in vivo
The subject of test [1] is wheat (Triticum aestivum). Kind of test: Test A postemergence. The following applies: Triticum aestivum, post-emergence, 240 h, 125 g ai/ha, postemergence, visual injury rating after approximately 10 d; read-out: Wheat plant response rating (0 to 100 scale, 0 no effect, 100 complete control). The gist of the method:
(§1)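 Compounds were formulated in a non-phytotoxic solvent mixture with surfactant and applied as a preemergence directed soil spray after seeding, or sprayed postemergence over plants 2 to 10 cm tall at the one- to two-leaf stage. Evaluation after about 10 d compared treated with untreated controls, using a scale from 0 (no effect) to 100 (complete control).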

Test [2] concerns Galium (catchweed bedstraw, Galium aparine). In words: Test A postemergence. Particulars: Galium, post-emergence, 240 h, 125 g ai/ha, postemergence, visual injury rating after approximately 10 d; read-out: Galium plant response rating (0 to 100 scale, 0 no effect, 100 complete control). In outline:
as §1

Test [3] relates to ragweed (common ragweed, Ambrosia elatior). In words: Test A postemergence. Particulars: Ambrosia artemisiifolia, post-emergence, 240 h, 125 g ai/ha, postemergence, visual injury rating after approximately 10 d; read-out: Ragweed plant response rating (0 to 100 scale, 0 no effect, 100 complete control). The gist of the method: as §1
The next test concerns corn (Zea mays). Kind of test: Test A postemergence. The following applies: Zea mays, post-emergence, 240 h, 125 g ai/ha, postemergence, visual injury rating after approximately 10 d; read-out: Corn plant response rating (0 to 100 scale, 0 no effect, 100 complete control). In outline:
as §1

For test [4], the system named is ryegrass, Italian (Italian ryegrass, Lolium multiflorum). In words: Test A postemergence. The following applies: Lolium multiflorum, post-emergence, 240 h, 125 g ai/ha, postemergence, visual injury rating after approximately 10 d; read-out: Ryegrass, Italian plant response rating (0 to 100 scale, 0 no effect, 100 complete control). The gist of the method: as §1
The subject of test [5] is Kochia (Kochia scoparia). Kind of test: Test A postemergence. The following applies: Bassia scoparia, post-emergence, 240 h, 125 g ai/ha, postemergence, visual injury rating after approximately 10 d; read-out: Kochia plant response rating (0 to 100 scale, 0 no effect, 100 complete control). In outline: as §1
Test [6] relates to barnyardgrass (Echinochloa crus-galli). Kind of test: Test A postemergence. The following applies: Echinochloa crus-galli, post-emergence, 240 h, 125 g ai/ha, postemergence, visual injury rating after approximately 10 d; read-out: Barnyardgrass plant response rating (0 to 100 scale, 0 no effect, 100 complete control). In outline: as §1
Test [7] has as its system giant foxtail (Setaria faberii). Kind of test: Test A postemergence. Particulars: Setaria faberi, post-emergence, 240 h, 125 g ai/ha, postemergence, visual injury rating after approximately 10 d; read-out: Foxtail, Giant plant response rating (0 to 100 scale, 0 no effect, 100 complete control). The gist of the method:
as §1

In test [8] the test system is blackgrass (Alopecurus myosuroides). In words: Test A postemergence. Particulars: Alopecurus myosuroides, post-emergence, 240 h, 125 g ai/ha, postemergence, visual injury rating after approximately 10 d; read-out: Blackgrass plant response rating (0 to 100 scale, 0 no effect, 100 complete control). In outline: as §1
In test [9] the test system is ragweed (common ragweed, Ambrosia elatior). Kind of test: Test A preemergence. Particulars: Ambrosia artemisiifolia, pre-emergence, 240 h. In outline:
as §1

The test system of test [10] is pigweed (Amaranthus retroflexus). In words: Test A preemergence. The following applies: Amaranthus retroflexus, pre-emergence, 240 h.
The test system of test [11] is ryegrass, Italian (Italian ryegrass, Lolium multiflorum). Kind of test: Test A preemergence. Particulars: Lolium multiflorum, pre-emergence, 240 h. In outline: as §1
The test system of test [12] is Kochia (Kochia scoparia). In words: Test A preemergence. Particulars: Bassia scoparia, pre-emergence, 240 h. The gist of the method:
as §1

For test [13], the system named is barnyardgrass (Echinochloa crus-galli). Kind of test: Test A preemergence. Particulars: Echinochloa crus-galli, pre-emergence, 240 h. The gist of the method:
as §1

For test [14], the system named is giant foxtail (Setaria faberii). In words: Test A preemergence. The following applies: Setaria faberi, pre-emergence, 240 h. In outline:
as §1

As for `CN1C[C@H](c2cc(F)c(F)c(F)c2)[C@@H](C(=O)Nc2ccccc2S(C)(=O)=O)C1=O` [Compound 880], the plant injury at 125 g/ha in [1] came to 40%; in the test on corn (Zea mays), 20%. Also, the pest or weed control at 125 g/ha amounted to 60% in test [2]; 40% in test [3]; 50% in [4]; 20% in the test with Kochia (Kochia scoparia) [5]; 90% in test [6]; 80% in [7]. For the same compound, the pest or weed control at 125 g/ha in [8] was found to be 0%; in test [9] (125 g ai/ha, preemergence, 0 to 100 scale where 0 is no effect and 100 is complete control, read-out: Ragweed plant response rating) it was 50%; in test [10] (125 g ai/ha, preemergence, 0 to 100 scale where 0 is no effect and 100 is complete control, read-out: Pigweed plant response rating), 70%; in test [11] (125 g ai/ha, preemergence, 0 to 100 scale where 0 is no effect and 100 is complete control, read-out: Ryegrass, Italian plant response rating) it was 20%; in the test with Kochia (Kochia scoparia) [12] (125 g ai/ha, preemergence, 0 to 100 scale where 0 is no effect and 100 is complete control, read-out: Kochia plant response rating) it was 70%; in [13] (125 g ai/ha, preemergence, 0 to 100 scale where 0 is no effect and 100 is complete control, read-out: Barnyardgrass plant response rating), 90%. Also, the pest or weed control at 125 g/ha in [14] (125 g ai/ha, preemergence, 0 to 100 scale where 0 is no effect and 100 is complete control, read-out: Foxtail, Giant plant response rating) was found to be 100%. In addition, the pest or weed control at 500 g/ha in [9] (500 g ai/ha, Preemergence, visual injury vs untreated controls after approximately 10 d, read-out: Ragweed plant response rating (0 to 100 scale where 0 is no effect and 100 is complete control)) turned out to be 80%; in test [10] (500 g ai/ha, Preemergence, visual injury vs untreated controls after approximately 10 d, read-out: Pigweed plant response rating (0 to 100 scale where 0 is no effect and 100 is complete control)) it was 90%; in test [11] (500 g ai/ha, Preemergence, visual injury vs untreated controls after approximately 10 d, read-out: Ryegrass, Italian plant response rating (0 to 100 scale where 0 is no effect and 100 is complete control)), 70%; in the test on Kochia (Kochia scoparia) [12] (500 g ai/ha, Preemergence, visual injury vs untreated controls after approximately 10 d, read-out: Kochia plant response rating (0 to 100 scale where 0 is no effect and 100 is complete control)), 90%; in [13] (500 g ai/ha, Preemergence, visual injury vs untreated controls after approximately 10 d, read-out: Barnyardgrass plant response rating (0 to 100 scale where 0 is no effect and 100 is complete control)), 100%; in [14] (500 g ai/ha, Preemergence, visual injury vs untreated controls after approximately 10 d, read-out: Foxtail, Giant plant response rating (0 to 100 scale where 0 is no effect and 100 is complete control)), 100%.

These data come from patent US12077503B2, “Substituted cyclic amides and their use as herbicides” (FMC CORPORATION, priority 2015, dated 2024).
